Assay results reported in the NIST ThermoML archive (doi:10.1021/je300405a).

Conditions: Liquid; for mass density: Vibrating tube method; for speed of sound: Pulse-echo method

CCCCCCCCCC(=O)OC [methyl decanoate]
Conditions | mass density, 343.15 K [kg/m3] | mass density, 353.15 K [kg/m3] | mass density, 363.15 K [kg/m3] | mass density, 373.15 K [kg/m3] | mass density, 383.15 K [kg/m3] | mass density, 393.15 K [kg/m3] | speed of sound, 343.15 K [m/s] | speed of sound, 363.15 K [m/s] | speed of sound, 383.15 K [m/s] | speed of sound, 403.15 K [m/s]
101.3 kPa | – | 822.35 | 814.51 | 805.43 | 797.49 | 788.67 | – | – | – | –
10000 kPa | – | 831.43 | 823.75 | 816.05 | 808.37 | 800.06 | – | 1138.5 | 1077.4 | 1017.7
20000 kPa | – | 839.8 | 832.39 | 825.16 | 818.07 | 810.12 | – | 1195.9 | 1138.6 | 1083.2
30000 kPa | – | 847.35 | 840.33 | 833.45 | 826.67 | 819.15 | – | 1247.9 | 1193.5 | 1141.7
40000 kPa | – | 854.31 | 847.71 | 841.07 | 834.58 | 827.46 | – | 1296.3 | 1244.5 | 1194.7
50000 kPa | – | 860.82 | 854.36 | 848.03 | 841.72 | 834.97 | – | 1341.1 | 1291.3 | 1242.9
60000 kPa | – | 866.96 | 860.65 | 854.82 | 848.65 | 842.04 | – | 1382.7 | 1334.9 | 1288.1
70000 kPa | 879.04 | 872.65 | 866.47 | 860.9 | 855.07 | 848.64 | – | 1421.6 | 1375.4 | 1330.6
80000 kPa | 884.27 | 878.11 | 872.03 | 866.94 | 861.06 | 854.73 | 1508.2 | 1458.4 | 1414.2 | 1370.3
90000 kPa | 889.44 | 883.27 | 877.31 | 872.3 | 866.74 | 860.61 | 1541.7 | 1493.8 | 1450.6 | 1407.7
100000 kPa | 894.26 | 888.25 | 882.47 | 877.6 | 872.09 | 866.13 | 1574.1 | 1527.4 | 1485.3 | 1442.8
110000 kPa | – | – | – | – | – | – | 1606 | 1559.7 | 1518.9 | 1476.6
120000 kPa | – | – | – | – | – | – | 1636.2 | 1590.9 | 1550.9 | 1509.7
130000 kPa | – | – | – | – | – | – | 1665.9 | 1620.7 | 1581.2 | 1541.7
140000 kPa | – | – | – | – | – | – | 1694 | 1649.4 | 1610.8 | 1571.6
150000 kPa | – | – | – | – | – | – | 1721.2 | 1677.2 | 1641 | 1600.1
170000 kPa | – | – | – | – | – | – | 1773.2 | 1730.6 | 1692.7 | 1655.5
190000 kPa | – | – | – | – | – | – | 1822 | 1780.4 | 1743 | 1706.6
210000 kPa | – | – | – | – | – | – | 1868.7 | 1827.2 | 1791.1 | 1754.5
